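Interpolation was linear, between the two tested concentrations surrounding the appropriate level; five concentrations were tested over 48 hours in 96-well plates. Abbreviation: GI50, concentration required for 50% inhibition of growth. TGI is the concentration that stops growth completely.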
Tests used:
Assay in all cases: NCI-60 cell line screen, 48 h
LOX IMVI melanoma = tested on: LOX IMVI melanoma
CAKI-1 renal = tested on: CAKI-1 renal
HCT-15 colon = tested on: HCT-15 colon
HOP-62 NSCLC = tested on: HOP-62 NSCLC
KM12 colon = tested on: KM12 colon
MALME-3M melanoma = tested on: MALME-3M melanoma
OVCAR-8 ovarian = tested on: OVCAR-8 ovarian
NCI-H23 lung = tested on: NCI-H23 lung
SK-MEL-2 melanoma = tested on: SK-MEL-2 melanoma
IGROV1 ovarian = tested on: IGROV1 ovarian

SMILES	GI50 (LOX IMVI melanoma)	TGI (LOX IMVI melanoma)	GI50 (CAKI-1 renal)	TGI (CAKI-1 renal)	GI50 (HCT-15 colon)	TGI (HCT-15 colon)	GI50 (HOP-62 NSCLC)	TGI (HOP-62 NSCLC)	GI50 (KM12 colon)	TGI (KM12 colon)	GI50 (MALME-3M melanoma)	TGI (MALME-3M melanoma)	GI50 (OVCAR-8 ovarian)	TGI (OVCAR-8 ovarian)	GI50 (NCI-H23 lung)	TGI (NCI-H23 lung)	GI50 (SK-MEL-2 melanoma)	TGI (SK-MEL-2 melanoma)	GI50 (IGROV1 ovarian)	TGI (IGROV1 ovarian)
O=C(Nc1ccccc1)Nc1cccc(Oc2nnc(Cl)c3ccccc23)c1	3.46 µM	6.8 µM	3.34 µM	14.3 µM	3540 nM	12.9 µM	2.52 µM	6.54 µM	5510 nM	> 25 µM	1620 nM	5.93 µM	2.6 µM	6.53 µM	3.72 µM	9.44 µM	3.9 µM	13.2 µM	3320 nM	7.92 µM
N#CC1CC2(C(=O)C1=O)c1ccccc1-c1ccccc12 (stereo not given)	–	> 100 µM	–	> 100 µM	–	> 100 µM	–	> 100 µM	–	> 100 µM	–	> 100 µM	–	> 100 µM	–	> 100 µM	–	> 100 µM	–	> 100 µM
CCNCCCn1c2c(c3ccc([N+](=O)[O-])cc3c1=O)C(=O)c1cc(OC)cnc1-2	0.0265 µM	0.131 µM	0.0406 µM	2.3 µM	184 nM	1.26 µM	0.107 µM	1.89 µM	197 nM	0.505 µM	162 nM	0.715 µM	0.0519 µM	0.479 µM	0.0436 µM	0.323 µM	0.349 µM	1.9 µM	184 nM	1.45 µM
COc1ccc(OC)c2c(=S)c3ccccc3[nH]c12	–	> 100 µM	–	> 100 µM	–	> 92.5 µM	–	> 100 µM	–	> 100 µM	–	> 100 µM	–	> 100 µM	–	> 100 µM	–	> 100 µM	–	> 100 µM
COc1ccc(N(/C=C/C(=O)C(F)(F)F)CC(=O)c2ccc(Cl)c(Cl)c2)cc1	11.8 µM	27.4 µM	15.6 µM	34.7 µM	7660 nM	21.4 µM	16.9 µM	30.9 µM	11600 nM	37.3 µM	39700 nM	> 100 µM	13.2 µM	36.6 µM	17.5 µM	32.3 µM	19.6 µM	44 µM	22800 nM	60.9 µM
O=C(Nc1cccc(-n2cc(-c3ccncc3)c(-c3ccc(O)c(Cl)c3)n2)c1)Nc1cccc(C(F)(F)F)c1	2.11 µM	5.87 µM	1.87 µM	5.84 µM	2240 nM	10.2 µM	2.75 µM	8.36 µM	1720 nM	3.48 µM	1790 nM	6.45 µM	2.41 µM	11.1 µM	2.59 µM	8.81 µM	2.35 µM	4.75 µM	2470 nM	5.98 µM
OCC(O)C(O)C(O)/C=N/Nc1nc2ccccc2nc1-c1ccccc1 (stereo not given)	72.2 µM	> 100 µM	87.9 µM	> 100 µM	86300 nM	> 100 µM	> 100 µM	> 100 µM	> 100000 nM	> 100 µM	> 100000 nM	> 100 µM	91.1 µM	> 100 µM	> 100 µM	> 100 µM	> 100 µM	> 100 µM	57400 nM	> 100 µM
C=C1C(=O)OC2CC(C)C3C=CC(=O)C3CC12 (stereo not given)	–	2.69 µM	–	5.47 µM	–	4.16 µM	–	31.8 µM	–	18.9 µM	–	4.08 µM	–	14.4 µM	–	4.03 µM	–	4.49 µM	–	13.2 µM
N#C/C(=C\c1ccc(Br)cc1)n1nnc2ccccc21	0.319 µM	1.19 µM	0.345 µM	2 µM	273 nM	3.03 µM	1.92 µM	10.5 µM	512 nM	2.33 µM	727 nM	2.78 µM	0.788 µM	13.6 µM	1.44 µM	4.2 µM	0.71 µM	3.42 µM	317 nM	1.43 µM
C/C(=N\N=C(N)N)C(CN(C)C)C(c1ccccc1)c1c(O)c2ccccc2oc1=O (stereo not given)	–	> 100 µM	–	> 100 µM	–	> 100 µM	–	> 100 µM	–	> 100 µM	–	> 100 µM	–	> 100 µM	–	> 100 µM	–	> 100 µM	–	> 100 µM
COc1cc2c(c(OC)c1OC)-c1ccc(OC)c(=O)cc1[C@@H](N(C)C=O)CC2	–	> 100 µM	–	> 100 µM	–	> 100 µM	–	> 100 µM	–	0.747 µM	–	> 100 µM	–	> 100 µM	–	> 100 µM	–	0.0487 µM	–	> 100 µM
C[C@H](N)C(=O)N1C[C@H](CCCB(O)O)[C@](N)(C(=O)O)C1	> 100 µM	> 100 µM	> 100 µM	> 100 µM	> 100000 nM	> 100 µM	> 100 µM	> 100 µM	> 100000 nM	> 100 µM	> 100000 nM	> 100 µM	> 100 µM	> 100 µM	> 100 µM	> 100 µM	> 100 µM	> 100 µM	> 100000 nM	> 100 µM
COc1cc(/C=C(\OC(C)=O)c2ccc3c(c2)OCO3)cc(OC)c1OC	–	31.3 µM	–	> 100 µM	–	36.9 µM	–	47.7 µM	–	48.7 µM	–	59.7 µM	–	33.9 µM	–	35.4 µM	–	57.9 µM	–	33.1 µM
CS(=O)(=O)OCCN(CCOS(C)(=O)=O)c1ccc(C=O)cc1	–	21.1 µM	–	2.08 µM	–	47.4 µM	–	24 µM	–	29.5 µM	–	26.7 µM	–	32.4 µM	–	12.6 µM	–	42.8 µM	–	43.3 µM
CN1CCN(c2ccc(C(=O)Nc3cc(-c4cccc(NS(=O)(=O)c5ccccc5)c4)[nH]n3)cc2)CC1	3.05 µM	13.2 µM	17.4 µM	51.8 µM	12300 nM	39.2 µM	6.61 µM	30.2 µM	29.3 nM	13.8 µM	9870 nM	26.7 µM	13.4 µM	32.3 µM	11.6 µM	35.2 µM	6.85 µM	20.2 µM	2640 nM	21.9 µM
Fc1ccc2[nH]cc(SSc3c[nH]c4ccc(F)cc34)c2c1	3.18 µM	17.4 µM	3.52 µM	21.7 µM	2100 nM	22 µM	6.33 µM	57.2 µM	3760 nM	16.1 µM	14600 nM	34 µM	5.73 µM	42.8 µM	16.7 µM	77.5 µM	3.62 µM	17 µM	5350 nM	20.8 µM
COc1ccc2c(c1)/C(=C/c1cc(OC)c(OC)c(OC)c1)C(=O)N2C	2.32 µM	11.8 µM	2.41 µM	> 27.4 µM	2120 nM	> 35.6 µM	4.63 µM	97.6 µM	1760 nM	4.95 µM	2870 nM	> 29.2 µM	4.21 µM	> 74.8 µM	4.42 µM	> 100 µM	3.29 µM	7.41 µM	1900 nM	5.31 µM
Cc1c(N=Cc2ccc(N(CCC#N)CCC#N)cc2)c(=O)n(-c2ccccc2)n1C	–	> 100 µM	–	> 100 µM	–	> 100 µM	–	86.1 µM	–	> 100 µM	–	> 100 µM	–	> 100 µM	–	> 100 µM	–	> 100 µM	–	> 100 µM
CC(C)c1ccc(NC(=S)NC(=O)c2ccccc2)cc1	–	31.2 µM	–	55.5 µM	–	40.7 µM	–	> 100 µM	–	46.5 µM	–	69.8 µM	–	> 100 µM	–	68 µM	–	35.8 µM	–	68.4 µM
CCSc1nnc(-c2ccc3ccccc3c2O)n1-c1ccc(Cl)cc1	5.52 µM	> 100 µM	6.85 µM	> 100 µM	3130 nM	> 100 µM	22.1 µM	> 100 µM	> 100000 nM	> 100 µM	> 100000 nM	> 100 µM	5.5 µM	> 100 µM	> 100 µM	> 100 µM	> 100 µM	> 100 µM	4420 nM	> 100 µM
NC(=O)c1ccc2nc3c(n2c1)C(=O)C(=O)c1ccccc1-3	0.264 µM	0.787 µM	1.67 µM	3.22 µM	1460 nM	3.55 µM	1.39 µM	2.8 µM	1390 nM	2.97 µM	171 nM	0.311 µM	0.403 µM	1.63 µM	0.42 µM	2.8 µM	0.633 µM	1.91 µM	1630 nM	3.34 µM
